# Assay results reported in US9051342B2 (priority 2004, dated 2015).
# “And” between values parts separate entries of the source, which are not always exact repeats. Identical values can stand only once.
row,melting point,SMILES
1,225 to 227 °C,O=C(O)c1cccc(-n2ccc(-c3ccc(C(F)(F)F)cc3)n2)c1 [Compound 94]
2,191 to 194 °C,"O=C(O)c1cccc(-n2ccc(-c3ccc(OC(F)(F)F)cc3)n2)c1 [Compound 95, 3-[3-(4-Trifluoromethoxy-phenyl)-pyrazol-1-yl]-benzoic acid]"
3,245 to 246 °C,"O=C(O)c1cccc(-c2ccn(-c3ccc(F)cc3)n2)c1 [Compound 96, 3-[1-(4-Fluoro-phenyl)-1H-pyrazol-3-yl]-benzoic acid]"
4,225 to 227 °C and 223 to 225 °C,COc1ccc(-n2cc(-c3cccc(C(=O)O)c3)cn2)cc1 [Compound 97]
5,225 to 226 °C,"O=C(O)c1cccc(-n2cc(-c3ccccc3)cn2)c1 [Compound 98, 3-(4-Phenyl-pyrazol-1-yl)-benzoic acid]"
6,267 to 269 °C,"O=C(O)c1ccc(-n2cc(-c3ccccc3)cn2)cc1 [Compound 99, 4-(4-Phenyl-pyrazol-1-yl)-benzoic acid]"
7,282 to 284 °C,"O=C(O)c1cccc(-n2cc(-c3ccc(O)cc3)cn2)c1 [Compound 100, 3-[4-(4-Hydroxy-phenyl)-pyrazol-1-yl]-benzoic acid]"
8,274 to 276 °C,"O=C(O)c1cccc(-n2cc(-c3ccc([N+](=O)[O-])cc3)cn2)c1 [Compound 101, 3-[4-(4-Nitro-phenyl)-pyrazol-1-yl]-benzoic acid]"
9,276 to 277 °C,"O=C(O)c1ccc(-n2cc(-c3ccc([N+](=O)[O-])cc3)cn2)cc1 [Compound 102, 4-[4-(4-Nitro-phenyl)-pyrazol-1-yl]-benzoic acid]"
10,283 to 285 °C,"O=C(O)c1cccc(-n2cc(-c3ccc(F)cc3F)cn2)c1 [Compound 103, 3-[4-(2,4-Difluoro-phenyl)-pyrazol-1-yl]-benzoic acid]"
11,291 to 293 °C,"O=C(O)c1ccc(-n2cc(-c3ccc(F)cc3F)cn2)cc1 [Compound 104, 4-[4-(2,4-Difluoro-phenyl)-pyrazol-1-yl]-benzoic acid]"
12,240 to 243 °C,"CC(C)c1ccc(-n2ccc(-c3ccc(C(=O)O)cc3)c2)cc1 [Compound 106, 4-[1-(4-Isopropyl-phenyl)-1H-pyrrol-3-yl]-benzoic acid]"
13,118 to 120 °C,"O=C(O)c1cccc(-n2cc(-c3ccc(OC(F)F)cc3)cn2)c1 [Compound 107, 3-[4-(4-Difluoromethoxy-phenyl)-pyrazol-1-yl]-benzoic acid]"
14,209 to 210 °C,"Nc1ccc(-c2cnn(-c3cccc(C(=O)O)c3)c2)cc1 [Compound 108, 3-[4-(4-Amino-phenyl)-pyrazol-1-yl]-benzoic acid]"
15,222 to 223 °C,"COc1cccc(-c2cnn(-c3ccc(C(=O)O)cc3)c2)c1 [Compound 109, 4-[4-(3-Methoxy-phenyl)-pyrazol-1-yl]-benzoic acid]"
16,224 to 225 °C,"CN(C)c1ccc(-c2cnn(-c3cccc(C(=O)O)c3)c2)cc1 [Compound 110, 3-[4-(4-Dimethylamino-phenyl)-pyrazol-1-yl]-benzoic acid]"
17,264 to 265 °C,"O=C(O)c1cccc(-n2cc(-c3ccc4c(c3)OCO4)cn2)c1 [Compound 111, 3-(4-Benzo[1,3]dioxol-5-yl-pyrazol-1-yl)-benzoic acid]"
18,157 to 158 °C,"COc1cccc(-c2cnn(-c3cccc(C(=O)O)c3)c2)c1 [Compound 112, 3-[4-(3-Methoxy-phenyl)-pyrazol-1-yl]-benzoic acid]"
19,243 to 245 °C,"O=C(O)c1cccc(-n2cc(-c3ccccn3)cn2)c1 [Compound 113, 3-(4-Pyridin-2-yl-pyrazol-1-yl)-benzoic acid]"
20,260 to 262 °C,"O=C(O)c1ccc(-n2cc(-c3ccccn3)cn2)cc1 [Compound 114, 4-(4-Pyridin-2-yl-pyrazol-1-yl)-benzoic acid]"
21,300 to 302 °C,"O=C(O)c1cccc(-n2cc(-c3ccncc3)cn2)c1 [Compound 115, 3-(4-Pyridin-4-yl-pyrazol-1-yl)-benzoic acid]"
22,> 350 °C,"O=C(O)c1ccc(-n2cc(-c3ccncc3)cn2)cc1 [Compound 116, 4-(4-Pyridin-4-yl-pyrazol-1-yl)-benzoic acid]"
23,297 to 299 °C,"O=C(O)c1cccc(-n2cc(-c3ccncn3)cn2)c1 [Compound 117, 3-(4-Pyrimidin-4-yl-pyrazol-1-yl)-benzoic acid]"
24,> 350 °C,"O=C(O)c1ccc(-n2cc(-c3ccncn3)cn2)cc1 [Compound 118, 4-(4-Pyrimidin-4-yl-pyrazol-1-yl)-benzoic acid]"
25,310 to 311 °C,"O=C(O)c1cccc(-n2cc(-c3cnccn3)cn2)c1 [Compound 119, 3-(4-Pyrazin-2-yl-pyrazol-1-yl)-benzoic acid]"
26,319 to 321 °C,"O=C(O)c1ccc(-n2cc(-c3cnccn3)cn2)cc1 [Compound 120, 4-(4-Pyrazin-2-yl-pyrazol-1-yl)-benzoic acid]"

row,melting point,SMILES
1,331 to 333 °C,"O=C(O)c1cccc(-n2cc(-c3nc4ccccc4o3)cn2)c1 [Compound 121, 3-(4-Benzooxazol-2-yl-pyrazol-1-yl)-benzoic acid]"
2,325 to 326 °C,"O=C(O)c1cccc(-n2cc(-c3cnc4ccccc4n3)cn2)c1 [Compound 122, 3-(4-Quinoxalin-2-yl-pyrazol-1-yl)-benzoic acid]"
3,250 to 252 °C,"O=C(O)c1cccc(-n2cc(-c3ccc4ccccc4n3)cn2)c1 [Compound 123, 3-(4-Quinolin-2-yl-pyrazol-1-yl)-benzoic add]"
4,182 to 183 °C,"O=C(O)c1cccc(-c2ccn(-c3ccc(OC(F)F)cc3)n2)c1 [Compound 124, 3-[1-(4-Difluoromethoxy-phenyl)-1H-pyrazol-3-yl]-benzoic acid]"
5,190 to 192 °C,"CCc1ccc(-n2ccc(-c3cccc(C(=O)O)c3)c2)cc1 [Compound 125, 3-[1-(4-Ethyl-phenyl)-1H-pyrrol-3-yl]-benzoic acid]"
6,231 to 233 °C,"O=C(O)c1ccc(-c2ccn(-c3ccc(F)c(F)c3)c2)cc1 [Compound 127, 4-[1-(3,4-Difluoro-phenyl)-1H-pyrrol-3-yl]-benzoic acid]"
7,209 to 211 °C,"O=C(O)c1ccc(-c2ccn(-c3cccc(C(F)(F)F)c3)c2)cc1 [Compound 128, 4-[1-(3-Trifluoromethyl-phenyl)-1H-pyrrol-3-yl]-benzoic acid]"
8,278 to 280 °C,"CCc1ccc(-n2ccc(-c3ccc(C(=O)O)cc3)c2)cc1 [Compound 129, 4-[1-(4-Ethyl-phenyl)-1H-pyrrol-3-yl]-benzoic acid]"
9,239 to 241 °C,"O=C(O)c1ccc(-c2ccn(-c3ccccc3)c2)cc1 [Compound 130, 4-(1-Phenyl-1H-pyrrol-3-yl)-benzoic acid]"
10,318 to 320 °C,"O=C(O)c1ccc(-c2ccn(-c3ccc(OC(F)(F)F)cc3)c2)cc1 [Compound 131, 4-[1-(4-Trifluoromethoxy-phenyl)-1H-pyrrol-3-yl]-benzoic acid]"
11,213 to 215 °C,"O=C(O)c1cccc(-c2cnn(-c3ccc(OC(F)(F)F)cc3)c2)c1 [Compound 133, 3-[1-(4-Trifluoromethoxy-phenyl)-1H-pyrazol-4-yl]-benzoic acid]"
12,246 to 248 °C,"O=C(O)c1ccc(-c2cnn(-c3ccc(OC(F)(F)F)cc3)c2)cc1 [Compound 134, 4-[1-(4-Trifluoromethoxy-phenyl)-1H-pyrazol-4-yl]-benzoic acid]"
13,273 to 275 °C,"O=C(O)c1cccc(-n2ncc3c2CCc2ccccc2-3)c1 [Compound 135, 3-(4,5-Dihydro-benzo[e]indazol-3-yl)-benzoic acid]"
14,241 to 243 °C,"O=C(O)c1cccc(-n2ncc3c2Cc2ccccc2-3)c1 [Compound 136, 3-(8H-Indeno[2,1-c]pyrazol-1-yl)-benzoic acid]"
15,191 to 192 °C,"O=C(O)c1cccc(-n2cc3c(n2)-c2ccccc2CC3)c1 [Compound 137, 3-(4,5-Dihydro-benzo[g]indazol-2-yl)-benzoic acid]"
16,249 to 250 °C,"O=C(O)c1cccc(-n2cc3c(n2)-c2ccccc2C3)c1 [Compound 138, 3-(4H-Indeno[1,2-c]pyrazol-2-yl)-benzoic acid]"
17,272 to 273 °C,"COc1ccc2c(c1)Cc1cn(-c3cccc(C(=O)O)c3)nc1-2 [Compound 139, 3-(6-Methoxy-4H-indeno[1,2-c]pyrazol-2-yl)-benzoic acid]"
18,225 to 227 °C,"COc1ccc2c(c1)-c1nn(-c3cccc(C(=O)O)c3)cc1C2 [Compound 140, 3-(7-Methoxy-4H-indeno[1,2-c]pyrazol-2-yl)-benzoic acid]"
19,233 to 234 °C,"O=C(O)c1cccc(-n2cc3c(n2)CCc2ccccc2-3)c1 [Compound 141, 3-(4,5-Dihydro-benzo[e]indazol-2-yl)-benzoic acid]"
20,217 to 218 °C,"COc1ccc2c(c1)CCc1cn(-c3cccc(C(=O)O)c3)nc1-2 [Compound 142, 3-(7-Methoxy-4,5-dihydro-benzo[g]indazol-2-yl)-benzoic acid]"
21,192 to 193 °C,"COc1ccc2c(c1)-c1nn(-c3cccc(C(=O)O)c3)cc1CC2 [Compound 143, 3-(8-Methoxy-4,5-dihydro-benzo[g]indazol-2-yl)-benzoic acid]"
22,227 to 228 °C,"O=C(O)c1cccc(-n2cc3c(n2)-c2ccccc2OC3)c1 [Compound 144, 3-(4H-Chromeno[4,3-c]pyrazol-2-yl)-benzoic acid]"
23,290 to 292 °C,"COc1ccc2c(c1)-c1nn(-c3ccc(C(=O)O)cc3)cc1CC2 [Compound 145, 4-(8-Methoxy-4,5-dihydro-benzo[g]indazol-2-yl)-benzoic acid]"
24,246 to 248 °C,"O=C(O)c1cccc(-n2cc3c(n2)Cc2ccccc2-3)c1 [Compound 146, 3-(8H-Indeno[2,1-c]pyrazol-2-yl)-benzoic acid]"
25,232 to 233 °C,"COc1cccc2c1CCc1cn(-c3cccc(C(=O)O)c3)nc1-2 [Compound 147, 3-(6-Methoxy-4,5-dihydro-benzo[g]indazol-2-yl)-benzoic acid]"
26,288 to 290 °C,"COc1cccc2c1CCc1cn(-c3ccc(C(=O)O)cc3)nc1-2 [Compound 148, 4-(6-Methoxy-4,5-dihydro-benzo[g]indazol-2-yl)-benzoic acid]"
